Results published in patent publication US10315990B2, “Isothiocyanate compounds and isothiocyanate XPO1 protein inhibitor drugs thereof” (DRIVINGFORCE THERAPEUTICS Co., Ltd., priority 2015, dated 2019).

Legend:
[1] = test system: TNF-α; assay: Serum TNF-α level of IBD animal model (ELISA); type: in vivo, SD rats; details: 80 mg/kg, three days after making the TNBS model
Text: (§1) Inflammatory bowel disease is an autoimmune disease. […] The therapeutic effect of the representative compound for the immune system disease or inflammation can be assessed by detecting change in levels of some important cytokines such as TNF-α and IL-6 at downstream of the signal path.

[2] = test system: IL-6; assay: Serum IL-6 level of IBD animal model (ELISA); type: in vivo, SD rats; details: 80 mg/kg, three days after making the TNBS model
Text: as §1

[3] = test system: IBD animal model; assay: Macroscopic pathological changes of IBD animal model (enteroclysis with TNBS); type: in vivo, SD rats; details: TNBS rats; for Macroscopic pathological score: 80 mg/kg intragastrically daily, score 0-5, 10 animals
Procedure: Eight-week-old male SD rats (10 rats per group) were fasted for 24 hours and anaesthetized with diethyl ether. 50% ethanol and TNBS (2,4,6-trinitrobenzenesulfonic acid) were mixed to prepare a solution. In the IBD model group, a tube made of vinyl resin was inserted 5 cm from anus, and enteroclysis was performed with the TNBS solution in a dose of 100 mg/kg. The rats were hung upside down 30 seconds later after the enteroclysis to ensure no leakage of the TNBS solution. In the control group, the TNBS solution was replaced with normal saline with which enteroclysis was performed. Seven days later after the enteroclysis with the TNBS solution or normal saline, animals were sacrificed and dissected. […] Two weeks later after treated with the drugs, the animals were sacrificed and dissected, and large intestine thereof was taken out and fixed in 4% formalin solution for 30 minutes. The large intestine of the animals was cut lengthwise from the mesentery side to take photos for rectum portion and measure the weight of rectum. Based on the macroscopic observation and judgment score (Table 2-1), ulceration and bleeding states of rectum portion were scored according to the macroscopic observation scoring standard.

[4] = molecular target: T1, XPO1 protein (Homo sapiens, UniProt O14980); assay: Inhibitory activity for XPO1 protein (NES-GFP nuclear export, laser confocal microscope); type: cell-based; details: NES-GFP nuclear export, cells treated for 2 hours
T1 construct: Sixteen hours later, NES-GFP plasmid was transfected with liposome; endogenous in cells
Text: NES (nuclear export signal) is a nuclear export signal peptide recognized by XPO1 protein. XPO1 recognizes NES sequence peptide segment of biomacromolecule and exports the biomacromolecule out of nucleus. NES-GFP protein is obtained by co-expressing green fluorescence protein GFP and NES sequence peptide segment by using a eukaryotic expression plasmid. Inhibitory activity of the representative compound for XPO1 protein can be assessed by detecting influence of the compound on NES-GFP cell localization.
The cells were digested with trypsin, counted, and inoculated on 96-well plate in an amount of 1.5×10^4 cells per well. Sixteen hours later, NES-GFP plasmid was transfected with liposome.

[5] = test system: HMLE-Snail cell line; assay: Formation of HMLE-Snail cell line spheroids; type: cell-based; details: 10 μg/ml, treated for 24 hours; control = 100; read-out: Colony (%): cell colony number of drug-treated group/cell colony number of control group × 100%
Procedure: HMLE-Snail cell line is one of most classic cell models for studying tumor cell metastasis and EMT path. HMLE-Snail cell line highly expresses Snail protein, and thus one of most remarkable features thereof is that it has spherical cellular morphology (spheroid). […] The HMLE-Snail cell line used in the present invention was donated by Dr. Robert Weinberg from America Massachusetts Whitehead Institute. HMLE-Snail cells were suspended in a liquid culture medium (in which B-27 and N-2 were added, purchased from America Invitrogen Corporation) containing DMEM/F12 in a ratio of 1:1, in an amount of 1.0×10^3 cells/ml, and cultured in an ultra low attachment culture plate so as to allow spheroids to be formed. Seven days later, spheroids were collected by centrifugation, and counted. […] Docetaxel is a common clinical chemotherapy drug.

[6] = test system: NCI-H1650; assay: cells; type: cell-based; details: Homo sapiens; NCI-H1650, 72 hours; read-out: IC50
Procedure: (§2) NCI-H1975 and NCI-H1650 are two typical high metastasis type lung cancer cell lines. The therapeutic effect of the representative compound for the metastasis type lung cancers can be preliminarily assessed by detecting the inhibitory activity of the representative compound for the two cell lines. The lung cancer cell line was inoculated on 96-well cell culture plate in an amount of 6000 cells per well and cultured at 37° C. for 24 hours, and then treated solely with the compound added therein and cultured. Seventy-two hours later, MTT or CCK-8 method was used to detect the inhibitory activity of the compound for the two lung cancer cell lines.

[7] = test system: NCI-H1975; assay: cells; type: cell-based; details: Homo sapiens; NCI-H1975, 72 hours; read-out: IC50
Procedure: as §2

[8] = test system: SK-OV3 (high metastasis type ovarian cancer cell line); assay: Ovarian cancer intraperitoneal metastasis animal model; type: in vivo, nudemice (BALB/c-nu/nu); details: Mus musculus, SK-OV-3, ip; for response vs control in vivo at 80 mg/kg: 80 mg/kg intraperitoneal injection once a day for 3 weeks; for mortality at 80 mg/kg: six mice per group, read-out: Mortality (within 30 days) (converted)
Procedure: The ovarian cancer intraperitoneal metastasis animal model is one of most classic animal models for studying anti-ovarian cancer metastasis drug. Sixty 5 to 6-week-old female nudemice with similar weight (BALB/c-nu/nu) were chosen. SK-OV3 (high metastasis type ovarian cancer cell line) stably expressing green fluorescence protein was screened, and prepared into a cell suspension of 2×10^6 cells/100 μl with serum-free PRMI1640 medium. […] Three weeks later, the cancer was detected with a small animal in vivo imaging apparatus (Xenogen, School of Medicine, Shanghai Jiaotong University) and photos thereof were taken. […] In the table, T represents the drug-treated group, and C represents the blank control group. T/C is (V/V0 of compound-treated group)/(V/V0 of blank control group) in which V represents the cancer volume of mouse on the day the detection was performed, and V0 represents the cancer volume of mouse on the day the administration begun.

[9] = test system: HCT116; assay: Inhibitory activity for high metastasis type colon cancer cell line (MTT or CCK-8); type: cell-based; details: Homo sapiens, HCT-116; HCT116, 72 hours; read-out: IC50
Procedure: (§3) SW620 and HCT116 are two typical high metastasis type colon cancer cell lines. The colon cancer cell line was inoculated on 96-well cell culture plate in an amount of 6000 cells per well and cultured at 37° C. for 24 hours, and then treated solely with the compound added therein and cultured. Seventy-two hours later, MTT or CCK-8 method was used to detect the inhibitory activity of the compound for the two high metastasis type colon cancer cell lines.

[10] = test system: SW620; assay: as above; type: cell-based; details: Homo sapiens, SW-620; SW620, 72 hours; read-out: IC50
Procedure: as §3

T1 sequence (O14980 whole entry, species assumed): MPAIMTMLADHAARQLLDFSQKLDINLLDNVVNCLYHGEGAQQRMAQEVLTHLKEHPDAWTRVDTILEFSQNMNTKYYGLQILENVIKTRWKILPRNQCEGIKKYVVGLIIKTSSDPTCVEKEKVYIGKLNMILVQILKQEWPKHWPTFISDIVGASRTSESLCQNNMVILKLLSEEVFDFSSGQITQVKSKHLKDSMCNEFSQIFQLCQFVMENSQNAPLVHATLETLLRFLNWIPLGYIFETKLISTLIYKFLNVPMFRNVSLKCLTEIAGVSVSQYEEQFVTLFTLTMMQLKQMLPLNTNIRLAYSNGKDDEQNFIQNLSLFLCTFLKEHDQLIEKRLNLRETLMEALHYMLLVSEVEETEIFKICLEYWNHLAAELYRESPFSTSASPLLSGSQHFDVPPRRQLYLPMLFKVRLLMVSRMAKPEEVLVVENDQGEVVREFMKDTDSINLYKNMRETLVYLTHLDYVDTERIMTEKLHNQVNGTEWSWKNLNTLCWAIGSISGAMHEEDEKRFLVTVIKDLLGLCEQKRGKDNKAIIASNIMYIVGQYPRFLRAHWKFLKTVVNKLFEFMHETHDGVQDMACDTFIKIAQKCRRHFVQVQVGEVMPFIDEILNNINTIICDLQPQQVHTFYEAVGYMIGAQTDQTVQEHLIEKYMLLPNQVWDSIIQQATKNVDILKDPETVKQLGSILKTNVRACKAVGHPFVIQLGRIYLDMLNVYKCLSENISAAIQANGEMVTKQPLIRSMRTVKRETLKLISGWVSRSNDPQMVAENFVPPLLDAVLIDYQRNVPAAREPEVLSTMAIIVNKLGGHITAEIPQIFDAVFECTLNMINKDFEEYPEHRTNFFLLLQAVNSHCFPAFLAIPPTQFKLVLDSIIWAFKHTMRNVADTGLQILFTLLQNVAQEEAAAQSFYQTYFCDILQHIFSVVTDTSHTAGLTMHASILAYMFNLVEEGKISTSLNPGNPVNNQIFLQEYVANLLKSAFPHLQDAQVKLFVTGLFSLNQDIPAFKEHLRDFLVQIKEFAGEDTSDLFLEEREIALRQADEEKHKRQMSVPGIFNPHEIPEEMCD

Row | Structure (SMILES) | Activity (μM): inhibitory activity for XPO1 protein (full inhibitory concentration) [4] [µM] | activity at 10 µg/mL [5] [%] | also measured
1 | Nc1ccc(O)c(C(=O)O)c1 [Compound 5-ASA, 5-aminosalicylic acid, reference compound] | – | – | Serum TNF-α level, Animal-1 [1]: 1.7 ng/mL; Serum TNF-α level, Animal-2 [1]: 1.8 ng/mL; Serum TNF-α level, Animal-3 [1]: 2.0 ng/mL; Serum IL-6 level, Animal-1 [2]: 2.7 ng/mL; Serum IL-6 level, Animal-2 [2]: 2.2 ng/mL; Serum IL-6 level, Animal-3 [2]: 2.3 ng/mL; Macroscopic pathological score [3]: 4.0 ± 0.2; colon tissue bleeding and ulceration phenomena (in words) ([3]; 80 mg/kg): small relief extent
2 | CC(C)C[S+]([O-])/C=C/CCN=C=S (stereo not drawn) [Compound F-04, reference compound] | 10 to 15 | 60 to 65 | –
3 | [O-][S+](/C=C/CCN=C=S)c1ccc(Br)cc1 (stereo not drawn) [Compound I-02] | 1 to 5 | 30 to 35 | Macroscopic pathological score [3]: 2.0 ± 0.4
4 | COc1cc([S+]([O-])/C=C/CCN=C=S)cc(C(F)(F)F)c1 (stereo not drawn) [Compound I-05] | 0.5 to 1 | 20 to 25 | –
5 | NS(=O)(=O)c1cc([S+]([O-])/C=C/CCN=C=S)cc(C(F)(F)F)c1 (stereo not drawn) [Compound I-07] | 0.5 to 1 | 20 to 25 | –
6 | N#Cc1cc([S+]([O-])/C=C/CCN=C=S)cc(C(F)(F)F)c1 (stereo not drawn) [Compound I-08] | 0.5 to 1 | 15 to 20 | Serum TNF-α level, Animal-1 [1]: 1.0 ng/mL; Serum TNF-α level, Animal-2 [1]: 1.2 ng/mL; Serum TNF-α level, Animal-3 [1]: 1.1 ng/mL; IC50 [6]: 200 nM; IC50 [7]: 170 nM; Serum IL-6 level, Animal-1 [2]: 0.8 ng/mL; Serum IL-6 level, Animal-2 [2]: 0.7 ng/mL; Serum IL-6 level, Animal-3 [2]: 0.8 ng/mL; response vs control in vivo at 80 mg/kg ([8]; 504 h, read-out: T/C (%)): 23%; mortality at 80 mg/kg ([8]; 720 h): 0%
7 | [O-][S+](/C=C/CCN=C=S)c1ccc(N2CCOCC2)cc1 (stereo not drawn) [Compound I-09] | 1 to 5 | 25 to 30 | –
8 | [O-][S+](/C=C/CCN=C=S)c1ccc2c(c1)CCCC2 (stereo not drawn) [Compound I-10] | 1 to 5 | 30 to 35 | –
9 | [O-][S+](/C=C/CCN=C=S)c1ccc2cc3ccccc3cc2c1 (stereo not drawn) [Compound I-12] | 1 to 5 | 30 to 35 | –
10 | [O-][S+](/C=C/CCN=C=S)c1ccc2cccc3c2c1CC=C3 (stereo not drawn) [Compound I-13] | 1 to 5 | 30 to 35 | –
11 | [O-][S+](/C=C/CCN=C=S)c1ccc2c(c1)Cc1ccccc1-2 (stereo not drawn) [Compound I-14] | 1 to 5 | 25 to 30 | –
12 | [O-][S+](/C=C/CCN=C=S)c1cccnc1 (stereo not drawn) [Compound I-15] | 1 to 5 | 35 to 40 | –
13 | [O-][S+](/C=C/CCN=C=S)c1cncc(C(F)(F)F)c1 (stereo not drawn) [Compound I-16] | 0.5 to 1 | 35 to 40 | –
14 | [O-][S+](/C=C/CCN=C=S)c1ccc2ncccc2c1 (stereo not drawn) [Compound I-17] | 0.5 to 1 | 30 to 35 | response vs control in vivo at 80 mg/kg ([8]; 504 h, read-out: T/C (%)): 27%; mortality at 80 mg/kg ([8]; 720 h): 0%
15 | [O-][S+](/C=C/CCN=C=S)c1ccc2ncncc2c1 (stereo not drawn) [Compound I-18] | 1 to 5 | 30 to 35 | –
16 | O=c1ccc2cc([S+]([O-])/C=C/CCN=C=S)ccc2o1 (stereo not drawn) [Compound I-19] | 1 to 5 | 25 to 30 | –
17 | [O-][S+](/C=C/CCN=C=S)c1nc2ccccc2s1 (stereo not drawn) [Compound I-20] | 1 to 5 | 30 to 35 | Serum TNF-α level, Animal-1 [1]: 1.3 ng/mL; Serum TNF-α level, Animal-2 [1]: 1.2 ng/mL; Serum TNF-α level, Animal-3 [1]: 1.1 ng/mL; Serum IL-6 level, Animal-1 [2]: 1.0 ng/mL; Serum IL-6 level, Animal-2 [2]: 1.1 ng/mL; Serum IL-6 level, Animal-3 [2]: 1.0 ng/mL; Macroscopic pathological score [3]: 2.0 ± 0.3
18 | [O-][S+](/C=C/CCN=C=S)c1nc2cc(C(F)(F)F)ccc2s1 (stereo not drawn) [Compound I-21] | 1 to 5 | 30 to 35 | –
19 | [O-][S+](/C=C/CCN=C=S)c1nc2ccccc2[nH]1 (stereo not drawn) [Compound I-22] | 1 to 5 | 30 to 35 | –
20 | [O-][S+](/C=C/CCN=C=S)c1nc2ccc(C(F)(F)F)cc2[nH]1 (stereo not drawn) [Compound I-23] | 1 to 5 | 30 to 35 | –
21 | COc1ccc2nc([S+]([O-])/C=C/CCN=C=S)[nH]c2c1 (stereo not drawn) [Compound I-24] | 1 to 5 | 20 to 25 | –
22 | [O-][S+](/C=C/CCN=C=S)c1ccc(-c2ccccc2)cc1 (stereo not drawn) [Compound I-26] | 0.5 to 1 | 20 to 25 | –
23 | COc1ccc(Sc2ccc([S+]([O-])/C=C/CCN=C=S)cc2)cc1 (stereo not drawn) [Compound I-28] | 0.5 to 1 | 15 to 20 | IC50 [9]: 150 nM; IC50 [10]: 190 nM
24 | CC(=O)O[C@@]12CO[C@@H]1C[C@H](O)[C@@]1(C)C(=O)[C@H](O)C3=C(C)[C@@H](OC(=O)[C@H](O)[C@@H](NC(=O)OC(C)(C)C)c4ccccc4)C[C@@](O)([C@@H](OC(=O)c4ccccc4)[C@H]21)C3(C)C [Docetaxel, docetaxel] | – | 81 | response vs control in vivo at 20 mg/kg ([8]; 504 h, 20 mg/kg intraperitoneal injection once a day for 3 weeks, read-out: T/C (%)): 77%; mortality at 20 mg/kg ([8]; 720 h, read-out: Mortality (within 30 days)): 0%
25 | C[S+]([O-])/C=C/CCN=C=S (stereo not drawn) [SFE, sulforaphene, reference compound] | 10 to 15 | – | –
